“Also recorded” adds a separate entry of the source.
Assays:
[1] = target: T1, Helios (Homo sapiens, UniProt Q96SW2+Q9UKS7); assay: Immunoblot for Helios in Jurkat cells; format: cell-based; settings: for Helios degradation on co-treatment with proteasome or NAE inhibitor: 1 μM compound with 1 μM bortezomib, MLN4924 or carfilzomib, 4 h; for Helios degradation (immunoblot): wildtype or Crbn−/− Jurkat cells, 4 h treatment
T1 construct: endogenous in cells; host or cells: Jurkat
Experimental: (§1) A focused library of imide analogs was synthesized and assessed for their ability to induce dimerization between CRBN and Helios in a time-resolved fluorescence energy transfer (TR-FRET) assay (FIG. 1A).
(§2) Cells were lysed in M-PER buffer (Thermo Scientific) containing protease/phosphatase inhibitor cocktail (Roche). Protein concentration was measured using a BCA assay (Pierce™) Equivalent amounts of each sample were loaded on 4-12% Bis-Tris gels (Invitrogen™) transferred to nitrocellulose membranes, and immunoblotted with the indicated antibodies. IRDye®800-labeled goat anti-rabbit IgG and IRDye®680-labeled goat anti-mouse IgG (LI-COR®) secondary antibodies were purchased from LI-COR®, and membranes were detected on an Odyssey® detection system (LI-COR® Biosciences).
Cells were lysed in M-PER buffer (Thermo Scientific) containing protease/phosphatase inhibitor cocktail (Roche). Protein concentration was measured using a BCA assay (Pierce™) Equivalent amounts of each sample were loaded on 4-12% Bis-Tris gels (Invitrogen™) transferred to nitrocellulose membranes, and immunoblotted with the indicated antibodies. IRDye®800-labeled goat anti-rabbit IgG and IRDye®680-labeled goat anti-mouse IgG (LI-COR®) secondary antibodies were purchased from LI-COR®, and membranes were detected on an Odyssey detection system (LI-COR® Biosciences).

[2] = target: T2, IKZF1 (Homo sapiens, UniProt Q13422); assay: Cellular degradation assay, eGFP-IKZF1Δ fusion with mCherry reporter in Flp-In 293 cells; format: cell-based; settings: for IKZF1 GFP/RFP Relative Abundance: 5 h incubation, n=1
T2 construct: expressed in transfected cells; host or cells: Flp-In 293
Method in brief: (§3)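 Flp-In 293 cells stably expressing eGFP-tagged degron fusions with P2A-mCherry reporter were treated with compound titrations (0.5% DMSO) for 5 hours. Imaging quantified GFP-positive/mCherry-positive cell fraction per well; DC50 at 5 h from nonlinear variable-slope fit.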

[3] = target: T3, CRBN and Helios (IKZF2) (Homo sapiens, UniProt Q96SW2+Q9UKS7); assay: TR-FRET dimerization assay (CRBN-IKZF2 ternary complex formation); format: binding; settings: for TR-FRET signal (520/490 ratio), CRBN-Helios dimerization, in words: FIG. 1B, 2A, 5; for TR-FRET-IKZF2 (Normalized to CC-885): n=1
T3 construct: His (N); Strep (N)
Method in brief: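 BODIPY-labeled DDB1ΔB-CRBN and in vitro biotinylated IKZF2 were treated with increasing compound concentrations plus tracer Terbium-Streptavidin and incubated 15 min at rt. Recruitment was quantified as the 520/490 nm TR-FRET ratio; values are single measurements (n=1), each averaged from at least three technical replicates.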

[4] = target: T4, SALL4 ZNF1-2 (Homo sapiens, UniProt Q96SW2+Q9UJQ4); assay: Cellular degradation assay, eGFP-SALL4 ZnF1-2 fusion with mCherry reporter in Flp-In 293 cells; format: cell-based; settings: 5 h incubation, n=1
T4 construct: IKZF1Δ, IKZF2Δ, GSPT1 and SALL4 ZnF1-2 were subcloned; expressed in transfected cells; host or cells: Flp-In 293
Method in brief: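 Flp-In 293 cells stably expressing eGFP-SALL4 ZnF1-2 fusion plus mCherry reporter were treated with compound titrations (0.5% DMSO) for 5 hours. Imaging at 488/561 nm gave, per well, the fraction of GFP-positive among mCherry-positive cells.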

[5] = target: T5, Ikaros (Homo sapiens, UniProt Q13422+Q96SW2); assay: Immunoblot for Ikaros in Jurkat cells; format: cell-based; settings: for Ikaros degradation (immunoblot): 4 h treatment
T5 construct: endogenous in cells; host or cells: Jurkat
Experimental: as §1, §2

[6] = target: T6, GSPT1 (Homo sapiens, UniProt P15170+Q96SW2); assay: Cellular degradation assay, eGFP-GSPT1 fusion with mCherry reporter in Flp-In 293 cells; format: cell-based; parameters: expressed in transfected cells; host or cells: Flp-In 293; settings: for GSPT1 GFP/RFP Relative Abundance: 5 h incubation, n=1
Method in brief: as §3

[7] = system: IKZF2; assay: Cellular degradation assay, eGFP-IKZF2Δ fusion with mCherry reporter in Flp-In 293 cells; format: cell-based; settings: for IKZF2 GFP/RFP Relative Abundance: 5 h incubation, n=1
Method in brief: as §3

[8] = target: T7, Helios (Mus musculus, UniProt P81183); assay: Immunoblot for Helios in Hoxb8-immortalized myeloid progenitor cells (wildtype or Crbn^I391V/I391V); format: cell-based, murine; settings: Hoxb8 myeloid progenitor cells from wildtype or Crbn^I391V/I391V mice, 18 h
T7 construct: endogenous in cells; host or cells: Hoxb8-immortalized myeloid progenitor cells from mice
Experimental: IKZF1/3 are not susceptible to IMiD-mediated degradation in murine cells, and this can be rescued by mutating a single amino acid on the surface of murine CRBN (Ile 391) to the analogous human residue (Val). To determine whether Helios follows a similar pattern, Hoxb8-immortalized myeloid progenitor cells derived from wildtype or Crbn^I391V/I391V mice were treated with compound 54. […] Thus, Helios is degradable in murine cells only if they express ‘humanized’ CRBN.

[9] = system: Ikzf2 mRNA; assay: qPCR for Ikzf2 mRNA in Jurkat cells; format: cell-based; settings: 4 h, n=3
Experimental: FIG. 2A is a graph of 520/490 TR-FRET ratios. […] FIG. 2C is immunoblots from wildtype or Crbn−/− Jurkat cells treated with compound 54 for 4 h. FIG. 2D is immunoblots from Jurkat cells co-treated with compound 54 (1 μM) and bortezomib (bort.; 1 μM) or MLN4924 (1 μM) for 4 h. FIG. 2E is a bar graph showing quantitative polymerase chain reaction (qPCR) for Ikzf2 messenger ribonucleic acid (mRNA) from Jurkat cells treated for 4 h (n=3; N.S.=not significant).

[10] = target: T6, GSPT1; assay: Immunoblot for GSPT1 in Jurkat cells; format: cell-based; parameters: expressed in transfected cells; settings: wildtype or Crbn−/− Jurkat cells, 4 h treatment
Experimental: as §1, §2

[11] = target: T8, Ikaros (Mus musculus, UniProt Q03267+Q8C7D2, I391V); assay: Flow cytometry of Ikaros in splenic T cell subpopulations from Crbn^I391V/I391V mice; format: cell-based, murine; settings: 1 μM, 16 h
T8 construct: from tissue; host or cells: spleen (T cell subpopulations) of Crbn I391V/I391V mice
Experimental: (§4) FIG. 8A-FIG. 8B are a series of graphs depicting levels of Ikaros and Helios that were assessed by flow cytometry. […] FIG. 8B depicts levels of Ikaros and Helios of splenic T cell subpopulations from Crbn^I391V/I391V mice that were treated with 1 μM of indicated compounds for 16 h.
(§5) Splenocytes were fixed/permeabilized and stained with fluorochrome-coupled antibodies. FACS plots of murine splenocytes were stained for TCRβ, CD4, CD8, and FoxP3 (FIG. 8A).

[12] = target: T9, Helios (Mus musculus, UniProt P81183+Q8C7D2, I391V); assay: Helios levels in isolated Crbn^I391V/I391V Tregs; format: cell-based, murine; settings: 2 μM, IL-2 and IL-4, 4 days
T9 construct: from tissue; host or cells: spleen (T cell subpopulations / CD4+ CD25+ Tregs) of Crbn I391V/I391V mice
Experimental: (§6) FIG. 9A-FIG. 9C are a series of graphs showing that Helios degradation in Tregs permits IFNγ production. Isolated Crbn^I391V/I391V Tregs were treated with 2 μM of compound 69, 5 ng/mL IL-2, and 20 ng/mL IL-4 for 4 days and then restimulated with PMA/ionomycin for 5 h. […] FIG. 9B is a bar graph showing the percent increase of IFNγ with treatment of compound 69.
(§7) Foxp3+ regulatory T cells were isolated by sorting for CD4+ CD25+ T cells from Crbn^I391V/I391V spleens, treated with 2 μM of compound 69, 5 ng/mL IL-2, and 20 ng/mL IL4 for 4 days and then restimulated with PMA/ionomycin for 5 h. Cells were then fixed/permeabilized and stained with fluorochrome-coupled antibodies. […] FIG. 9B is a bar graph showing the percent increase of IFNγ with treatment of compound 69.

[13] = target: T9, Helios; assay: Flow cytometry of Helios in splenic T cell subpopulations from Crbn^I391V/I391V mice; format: cell-based, murine; settings: 1 μM, 16 h
Experimental: as §4, §5

[14] = system: Foxp3+ regulatory T cells; assay: IFNγ production of isolated Crbn^I391V/I391V Tregs after PMA/ionomycin restimulation; format: cell-based, murine; settings: 2 μM, 4 days, restimulated with PMA/ionomycin 5 h
Experimental: as §6, §7

[15] = compound concentration 2.00E−05
[16] = compound concentration 2.00E−06
[17] = compound concentration 2.00E−07
[18] = compound concentration 6.6667E−05
[19] = compound concentration 6.6667E−06
[20] = compound concentration 6.6667E−07 (667 nM)
[21] = half degradation at 5 h (DC50,5 h), triplicate, 11 point dose response

T1 sequence (Q9UKS7 whole entry): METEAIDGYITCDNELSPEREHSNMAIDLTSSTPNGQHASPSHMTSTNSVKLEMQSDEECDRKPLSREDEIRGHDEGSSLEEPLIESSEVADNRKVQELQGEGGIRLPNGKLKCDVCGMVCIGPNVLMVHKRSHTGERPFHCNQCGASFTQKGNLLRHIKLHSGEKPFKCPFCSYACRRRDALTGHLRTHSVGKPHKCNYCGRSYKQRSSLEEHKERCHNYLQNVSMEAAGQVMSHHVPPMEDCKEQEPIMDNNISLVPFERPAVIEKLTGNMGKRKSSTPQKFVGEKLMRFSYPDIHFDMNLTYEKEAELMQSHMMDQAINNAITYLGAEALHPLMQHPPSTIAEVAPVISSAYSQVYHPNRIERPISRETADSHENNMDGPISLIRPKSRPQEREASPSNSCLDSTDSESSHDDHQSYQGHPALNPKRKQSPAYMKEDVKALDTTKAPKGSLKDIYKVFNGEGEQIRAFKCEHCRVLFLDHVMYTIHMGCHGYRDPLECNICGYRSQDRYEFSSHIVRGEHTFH
T1 sequence (Q96SW2 whole entry): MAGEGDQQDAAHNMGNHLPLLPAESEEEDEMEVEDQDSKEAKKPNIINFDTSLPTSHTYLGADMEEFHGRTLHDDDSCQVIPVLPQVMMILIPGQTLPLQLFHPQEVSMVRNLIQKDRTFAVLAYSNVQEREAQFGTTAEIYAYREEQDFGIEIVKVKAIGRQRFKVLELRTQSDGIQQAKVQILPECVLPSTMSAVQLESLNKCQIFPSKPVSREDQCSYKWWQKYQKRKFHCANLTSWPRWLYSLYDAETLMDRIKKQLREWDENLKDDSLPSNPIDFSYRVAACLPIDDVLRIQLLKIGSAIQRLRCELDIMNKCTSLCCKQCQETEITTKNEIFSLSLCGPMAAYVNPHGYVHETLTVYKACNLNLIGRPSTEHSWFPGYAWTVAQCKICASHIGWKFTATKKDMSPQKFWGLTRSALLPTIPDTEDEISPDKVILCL
T1 sequence (Q16531 whole entry partner): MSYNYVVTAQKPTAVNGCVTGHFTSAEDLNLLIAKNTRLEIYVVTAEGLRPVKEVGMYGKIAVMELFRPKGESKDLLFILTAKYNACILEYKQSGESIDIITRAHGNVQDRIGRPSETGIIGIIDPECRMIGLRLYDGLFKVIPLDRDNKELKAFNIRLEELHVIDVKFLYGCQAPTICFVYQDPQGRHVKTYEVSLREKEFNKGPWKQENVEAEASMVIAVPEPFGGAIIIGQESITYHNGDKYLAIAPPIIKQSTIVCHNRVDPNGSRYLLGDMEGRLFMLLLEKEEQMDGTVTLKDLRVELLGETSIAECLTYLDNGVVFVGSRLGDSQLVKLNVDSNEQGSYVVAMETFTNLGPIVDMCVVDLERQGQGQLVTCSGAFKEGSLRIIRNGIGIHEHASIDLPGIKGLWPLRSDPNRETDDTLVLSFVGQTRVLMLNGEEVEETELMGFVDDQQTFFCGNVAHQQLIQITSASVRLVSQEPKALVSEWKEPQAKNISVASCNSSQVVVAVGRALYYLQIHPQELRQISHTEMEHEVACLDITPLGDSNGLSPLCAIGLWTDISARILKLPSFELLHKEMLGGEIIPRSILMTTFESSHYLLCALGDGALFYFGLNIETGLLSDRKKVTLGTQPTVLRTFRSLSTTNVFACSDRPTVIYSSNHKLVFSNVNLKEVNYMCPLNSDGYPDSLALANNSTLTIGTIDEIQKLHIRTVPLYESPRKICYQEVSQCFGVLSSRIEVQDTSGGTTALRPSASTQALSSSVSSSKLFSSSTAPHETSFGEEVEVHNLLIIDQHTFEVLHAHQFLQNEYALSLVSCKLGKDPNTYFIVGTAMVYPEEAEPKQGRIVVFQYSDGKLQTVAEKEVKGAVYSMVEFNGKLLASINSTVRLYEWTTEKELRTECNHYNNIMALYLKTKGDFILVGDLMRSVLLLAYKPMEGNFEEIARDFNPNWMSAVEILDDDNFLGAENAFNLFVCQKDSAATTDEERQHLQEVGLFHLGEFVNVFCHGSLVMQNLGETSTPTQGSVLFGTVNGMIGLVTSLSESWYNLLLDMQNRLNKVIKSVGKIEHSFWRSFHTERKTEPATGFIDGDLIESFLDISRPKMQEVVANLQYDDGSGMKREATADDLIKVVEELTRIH
T6 sequence (P15170 whole entry, the tested form may be a part): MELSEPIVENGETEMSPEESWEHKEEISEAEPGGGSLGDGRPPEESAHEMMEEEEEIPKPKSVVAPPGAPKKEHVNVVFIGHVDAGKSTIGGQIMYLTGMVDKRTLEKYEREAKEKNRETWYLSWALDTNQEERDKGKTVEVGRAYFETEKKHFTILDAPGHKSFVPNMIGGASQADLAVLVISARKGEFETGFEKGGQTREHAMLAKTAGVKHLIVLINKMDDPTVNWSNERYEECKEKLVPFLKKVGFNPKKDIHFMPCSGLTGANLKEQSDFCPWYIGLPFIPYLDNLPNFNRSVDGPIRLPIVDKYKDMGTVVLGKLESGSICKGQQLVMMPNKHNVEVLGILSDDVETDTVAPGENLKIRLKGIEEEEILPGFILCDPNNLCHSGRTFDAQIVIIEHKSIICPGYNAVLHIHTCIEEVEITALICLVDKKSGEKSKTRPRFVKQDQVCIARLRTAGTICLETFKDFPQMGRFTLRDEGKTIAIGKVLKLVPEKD
T6 sequence (Q96SW2 whole entry, the tested form may be a part): as the sequence (Q96SW2 whole entry) above
T6 sequence (Q16531 whole entry partner, the tested form may be a part): as the sequence (Q16531 whole entry partner) above
T2 sequence (Q13422 83-213 isoform Q13422-7 limits assumed): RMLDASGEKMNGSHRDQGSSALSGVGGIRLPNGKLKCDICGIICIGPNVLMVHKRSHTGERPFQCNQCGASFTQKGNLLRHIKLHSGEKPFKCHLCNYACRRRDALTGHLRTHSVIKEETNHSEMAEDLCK
T2 sequence (Q96SW2 whole entry partner, the tested form may be a part): as the sequence (Q96SW2 whole entry) above
T2 sequence (Q16531 2-1140 partner limits assumed): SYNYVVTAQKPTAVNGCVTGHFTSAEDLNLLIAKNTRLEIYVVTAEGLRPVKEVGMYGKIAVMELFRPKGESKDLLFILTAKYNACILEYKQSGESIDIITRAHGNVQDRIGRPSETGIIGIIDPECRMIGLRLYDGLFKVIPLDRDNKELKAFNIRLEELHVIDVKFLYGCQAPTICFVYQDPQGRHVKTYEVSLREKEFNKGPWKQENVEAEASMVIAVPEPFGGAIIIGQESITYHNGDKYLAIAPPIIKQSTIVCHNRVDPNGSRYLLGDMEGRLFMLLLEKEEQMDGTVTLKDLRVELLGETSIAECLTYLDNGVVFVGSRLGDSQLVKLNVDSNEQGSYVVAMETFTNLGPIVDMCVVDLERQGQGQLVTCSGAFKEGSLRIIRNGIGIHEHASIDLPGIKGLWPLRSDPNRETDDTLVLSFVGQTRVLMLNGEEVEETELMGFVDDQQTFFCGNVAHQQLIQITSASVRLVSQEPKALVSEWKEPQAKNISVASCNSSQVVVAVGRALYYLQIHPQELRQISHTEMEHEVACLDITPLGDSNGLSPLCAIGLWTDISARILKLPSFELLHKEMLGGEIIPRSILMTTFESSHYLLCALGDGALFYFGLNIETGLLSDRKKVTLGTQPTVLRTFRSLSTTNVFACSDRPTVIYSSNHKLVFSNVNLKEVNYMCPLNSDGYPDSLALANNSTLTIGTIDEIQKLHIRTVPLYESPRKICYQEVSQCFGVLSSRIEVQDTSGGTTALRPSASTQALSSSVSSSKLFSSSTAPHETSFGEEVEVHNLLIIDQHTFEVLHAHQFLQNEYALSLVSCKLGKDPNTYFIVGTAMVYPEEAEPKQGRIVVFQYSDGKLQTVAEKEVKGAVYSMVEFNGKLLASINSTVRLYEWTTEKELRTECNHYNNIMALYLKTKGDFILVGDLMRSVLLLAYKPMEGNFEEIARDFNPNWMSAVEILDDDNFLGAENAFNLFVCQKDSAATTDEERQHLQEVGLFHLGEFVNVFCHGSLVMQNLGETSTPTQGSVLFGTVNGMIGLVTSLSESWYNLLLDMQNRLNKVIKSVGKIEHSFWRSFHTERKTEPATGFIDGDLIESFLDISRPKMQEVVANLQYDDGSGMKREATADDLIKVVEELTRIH
T4 sequence (Q9UJQ4 378-438 limits assumed): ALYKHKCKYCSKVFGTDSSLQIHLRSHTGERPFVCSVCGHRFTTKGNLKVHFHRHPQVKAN
T4 sequence (Q96SW2 whole entry, the tested form may be a part): as the sequence (Q96SW2 whole entry) above
T4 sequence (Q16531 whole entry partner, the tested form may be a part): as the sequence (Q16531 whole entry partner) above
T5 sequence (Q13422 whole entry): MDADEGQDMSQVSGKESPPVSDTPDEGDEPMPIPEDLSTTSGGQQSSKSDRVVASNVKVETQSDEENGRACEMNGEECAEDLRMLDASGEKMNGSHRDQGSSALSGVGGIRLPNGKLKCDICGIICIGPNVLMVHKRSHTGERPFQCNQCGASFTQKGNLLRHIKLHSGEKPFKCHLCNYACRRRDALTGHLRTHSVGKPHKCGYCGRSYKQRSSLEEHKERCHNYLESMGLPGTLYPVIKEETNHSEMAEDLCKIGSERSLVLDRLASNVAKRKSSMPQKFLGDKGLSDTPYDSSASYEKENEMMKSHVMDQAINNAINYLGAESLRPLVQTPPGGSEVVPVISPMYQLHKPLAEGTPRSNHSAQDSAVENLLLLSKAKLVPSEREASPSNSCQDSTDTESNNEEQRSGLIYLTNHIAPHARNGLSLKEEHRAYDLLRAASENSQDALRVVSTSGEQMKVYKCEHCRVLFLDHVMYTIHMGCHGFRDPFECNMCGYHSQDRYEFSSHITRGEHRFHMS
T5 sequence (Q96SW2 whole entry): as the sequence (Q96SW2 whole entry) above
T5 sequence (Q16531 whole entry partner): as the sequence (Q16531 whole entry partner) above
T3 sequence (Q96SW2 whole entry): as the sequence (Q96SW2 whole entry) above
T3 sequence (Q9UKS7 whole entry): as the sequence (Q9UKS7 whole entry) above

SMILES: Cc1ccc(NC(=O)NCc2cccc(NC3=CC(=O)N(C4CCC(=O)NC4=O)C3=O)c2)cc1Cl (stereo not drawn) [Compound 44, 1-(3-chloro-4-methylphenyl)-3-(3-((1-(2,6-dioxopiperidin-3-yl)-2,5-dioxo-2,5-dihydro-1H-pyrrol-3-yl)amino)benzyl)urea]
- Helios loss (immunoblot) ([1]; Jurkat cells, 24 h treatment): induced loss of both Ikaros and Helios; also recorded: required 24 h treatment
- IKZF1 GFP/RFP Relative Abundance [2, 15]: 0.059
- IKZF1 GFP/RFP Relative Abundance [2, 16]: 0.071
- IKZF1 GFP/RFP Relative Abundance [2, 17]: 0.072
- TR-FRET signal (520/490 ratio), CRBN-Helios dimerization, in words [3]: increased activity over CC-885 at all tested concentrations
- TR-FRET-IKZF2 (Normalized to CC-885) [3, 18]: 1.223
- TR-FRET-IKZF2 (Normalized to CC-885) [3, 19]: 1.191
- TR-FRET-IKZF2 (Normalized to CC-885) [3, 20]: 1.119
- SALL4 ZNF1-2 GFP/RFP Relative Abundance [4, 15]: 0.888
- SALL4 ZNF1-2 GFP/RFP Relative Abundance [4, 16]: 0.742
- SALL4 ZNF1-2 GFP/RFP Relative Abundance [4, 17]: 0.702
- Ikaros loss (immunoblot) ([5]; 24 h treatment): induced loss of both Ikaros and Helios
- GSPT1 GFP/RFP Relative Abundance [6, 15]: 0.399
- GSPT1 GFP/RFP Relative Abundance [6, 16]: 0.504
- GSPT1 GFP/RFP Relative Abundance [6, 17]: 0.744
- IKZF2 GFP/RFP Relative Abundance [7, 15]: 0.042
- IKZF2 GFP/RFP Relative Abundance [7, 16]: 0.079
- IKZF2 GFP/RFP Relative Abundance [7, 17]: 0.085

SMILES: Cc1ccc(NC(=O)NC(C)c2cccc(NC3=CC(=O)N(C4CCC(=O)NC4=O)C3=O)c2)cc1Cl (stereo not drawn) [Compound 54, 1-(3-chloro-4-methylphenyl)-3-(1-(3-((1-(2,6-dioxopiperidin-3-yl)-2,5-dioxo-2,5-dihydro-1H-pyrrol-3-yl)amino)phenyl)ethyl)urea]
- Helios degradation on co-treatment with proteasome or NAE inhibitor ([1]; Jurkat cells): both prevented Helios degradation
- Helios degradation (immunoblot) [1]: induced CRBN-dependent Helios degradation
- IKZF1 GFP/RFP Relative Abundance [2, 15]: 0.119
- IKZF1 GFP/RFP Relative Abundance [2, 16]: 0.106
- IKZF1 GFP/RFP Relative Abundance [2, 17]: 0.102
- TR-FRET signal (520/490 ratio), CRBN-Helios dimerization, in words [3]: scored even higher than compound 44
- TR-FRET-IKZF2 (Normalized to CC-885) [3, 18]: 1.729
- TR-FRET-IKZF2 (Normalized to CC-885) [3, 19]: 1.629
- TR-FRET-IKZF2 (Normalized to CC-885) [3, 20]: 1.382
- Ikaros degradation (immunoblot) [5]: lost some degradation activity against Ikaros in comparison to compound 44
- Helios degradation in murine cells [8]: Helios was only degraded in Crbn^I391V/I391V cells
- IKZF2 mRNA levels (qPCR) [9]: did not affect mRNA levels of IKZF2
- GSPT1 GFP/RFP Relative Abundance [6, 15]: 0.420
- GSPT1 GFP/RFP Relative Abundance [6, 16]: 0.638
- GSPT1 GFP/RFP Relative Abundance [6, 17]: 0.567
- IKZF2 GFP/RFP Relative Abundance [7, 15]: 0.030
- IKZF2 GFP/RFP Relative Abundance [7, 16]: 0.024
- IKZF2 GFP/RFP Relative Abundance [7, 17]: 0.027

SMILES: Cc1ccc(NC(=O)NC(C)(C)c2cccc(NC3=CC(=O)N(C4CCC(=O)NC4=O)C3=O)c2)cc1Cl (stereo not drawn) [Compound 69, 1-(3-chloro-4-methylphenyl)-3-(2-(3-((1-(2,6-dioxopiperidin-3-yl)-2,5-dioxo-2,5-dihydro-1H-pyrrol-3-yl)amino)phenyl)propan-2-yl)urea]
- GSPT1 stability (immunoblot) [10]: did not affect the stability of GSPT1 or Ikaros
- Helios degradation on co-treatment with proteasome or NAE inhibitor ([1]; Jurkat cells): Helios degradation is dependent on the proteasome
- Helios degradation (immunoblot) [1]: induced CRBN-dependent Helios degradation
- IKZF1 GFP/RFP Relative Abundance [2, 15]: 0.086
- IKZF1 GFP/RFP Relative Abundance [2, 16]: 0.140
- IKZF1 GFP/RFP Relative Abundance [2, 17]: 0.132
- DC50 [2, 21]: 14 nM
- TR-FRET signal (520/490 ratio), CRBN-Helios dimerization, in words [3]: induced higher TR-FRET signals than CC-885
- TR-FRET-IKZF2 (Normalized to CC-885) [3, 18]: 2.037
- TR-FRET-IKZF2 (Normalized to CC-885) [3, 19]: 1.970
- TR-FRET-IKZF2 (Normalized to CC-885) [3, 20]: 1.737
- Ikaros degradation in regulatory T cells (flow cytometry) [11]: not Ikaros
- Ikaros degradation (immunoblot) [5]: did not affect the stability of GSPT1 or Ikaros
- Helios degradation in isolated Tregs [12]: able to induce degradation of Helios in Tregs
- Helios degradation in regulatory T cells (flow cytometry) [13]: capable of inducing degradation of Helios
- IFNγ production [14]: increased production of IFNγ upon restimulation
- DC50 [6, 21]: > 1000 nM
- IKZF2 GFP/RFP Relative Abundance [7, 15]: 0.032
- IKZF2 GFP/RFP Relative Abundance [7, 16]: 0.013
- IKZF2 GFP/RFP Relative Abundance [7, 17]: 0.028
- DC50 [7, 21]: 3.6 nM

Source: patent publication US12227488B2, “Small molecule degraders of Helios and methods of use” (DANA-FARBER CANCER INSTITUTE, INC., priority 2018, dated 2025)
